Assay results reported in ChEMBL document CHEMBL1201862, “PubChem BioAssay data set” (2004).
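Tested at 5 concentrations; 48 h exposure; 96-well plates; endpoints linearly interpolated, else capped at highest concentration. The concentration for 50% growth inhibition is given as GI50.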 Activity calls are given as the source filed them. Cut-off read from the data, not from the text of the source: active = GI50 up to about 1.1 µM and inactive = higher.

Tests used:
Assay in all cases: NCI anticancer screen, dose series, 48 h
786-0 = system: 786-0
A498 = system: A498
A549 = system: A549
ACHN = system: ACHN
CAKI-1 = system: CAKI-1
CCRF-CEM = system: CCRF-CEM
COLO 205 = system: COLO 205
DLD-1 = system: DLD-1
DMS-114 = system: DMS-114
DMS-273 = system: DMS-273
EKVX = system: EKVX
HCC 2998 = system: HCC 2998
HCT-116 = system: HCT-116
HCT-15 = system: HCT-15
HL-60 = system: HL-60
HOP-18 = system: HOP-18
HOP-62 = system: HOP-62
HOP-92 = system: HOP-92
HT-29 = system: HT-29
IGROV-1 = system: IGROV-1
K562 = system: K562
KM-20L2 = system: KM-20L2
KM12 = system: KM12
LOX IMVI = system: LOX IMVI
LXFL 529 = system: LXFL 529
M14 = system: M14
M19-MEL = system: M19-MEL
MOLT-4 = system: MOLT-4
Malme-3M = system: Malme-3M
NCI-H226 = system: NCI-H226
NCI-H23 = system: NCI-H23
NCI-H460 = system: NCI-H460
NCI-H522 = system: NCI-H522
OVCAR-3 = system: OVCAR-3
OVCAR-4 = system: OVCAR-4
OVCAR-5 = system: OVCAR-5
RPMI-8226 = system: RPMI-8226
RXF 393 = system: RXF 393
RXF 631 = system: RXF 631
SF-268 = system: SF-268
SF-295 = system: SF-295
SF-539 = system: SF-539
SK-MEL-28 = system: SK-MEL-28
SK-MEL-2 = system: SK-MEL-2
SK-MEL-5 = system: SK-MEL-5
SK-OV-3 = system: SK-OV-3
SN12C = system: SN12C
SNB-19 = system: SNB-19
SNB-75 = system: SNB-75
SNB-78 = system: SNB-78
SR = system: SR
SW-620 = system: SW-620
TK-10 = system: TK-10
U-251 = system: U-251
UACC-257 = system: UACC-257
UACC-62 = system: UACC-62
UO-31 = system: UO-31
OVCAR-8 = system: OVCAR-8

Compound: COc1ccc(NC(=O)CC/C(CC(=O)C(C)(C)C)=N\NC(=O)C(=O)NN)cc1
- GI50 (786-0): > 100 µM (inactive)
- GI50 (A498): > 100 µM (inactive)
- GI50 (A549): > 100 µM (inactive)
- GI50 (ACHN): > 100 µM (inactive)
- GI50 (CAKI-1): > 100 µM (inactive)
- GI50 (CCRF-CEM): > 100 µM (inactive)
- GI50 (COLO 205): > 100 µM (inactive)
- GI50 (DLD-1): > 100 µM (inactive)
- GI50 (DMS-114): > 100 µM (inactive)
- GI50 (DMS-273): > 100 µM (inactive)
- GI50 (EKVX): > 100 µM (inactive)
- GI50 (HCC 2998): > 100 µM (inactive)
- GI50 (HCT-116): > 100 µM (inactive)
- GI50 (HCT-15): > 100 µM
- GI50 (HL-60): > 100 µM (inactive)
- GI50 (HOP-18): > 100 µM (inactive)
- GI50 (HOP-62): > 100 µM (inactive)
- GI50 (HOP-92): 56.5 µM (inactive)
- GI50 (HT-29): > 100 µM (inactive)
- GI50 (IGROV-1): > 100 µM (inactive)
- GI50 (K562): > 100 µM (inactive)
- GI50 (KM-20L2): > 100 µM (inactive)
- GI50 (KM12): > 100 µM (inactive)
- GI50 (LOX IMVI): > 100 µM (inactive)
- GI50 (LXFL 529): > 100 µM (inactive)
- GI50 (M14): > 100 µM (inactive)
- GI50 (M19-MEL): > 100 µM (inactive)
- GI50 (MOLT-4): > 100 µM (inactive)
- GI50 (Malme-3M): > 100 µM (inactive)
- GI50 (NCI-H226): > 100 µM (inactive)
- GI50 (NCI-H23): > 100 µM (inactive)
- GI50 (NCI-H460): > 100 µM (inactive)
- GI50 (NCI-H522): 44.2 µM (inactive)
- GI50 (OVCAR-3): > 100 µM (inactive)
- GI50 (OVCAR-4): > 100 µM (inactive)
- GI50 (OVCAR-5): > 100 µM (inactive)
- GI50 (RPMI-8226): > 100 µM (inactive)
- GI50 (RXF 393): > 100 µM (inactive)
- GI50 (RXF 631): > 100 µM (inactive)
- GI50 (SF-268): > 100 µM (inactive)
- GI50 (SF-295): > 100 µM (inactive)
- GI50 (SF-539): > 100 µM (inactive)
- GI50 (SK-MEL-28): > 100 µM (inactive)
- GI50 (SK-MEL-2): > 100 µM (inactive)
- GI50 (SK-MEL-5): > 100 µM (inactive)
- GI50 (SK-OV-3): > 100 µM (inactive)
- GI50 (SN12C): > 100 µM (inactive)
- GI50 (SNB-19): > 100 µM (inactive)
- GI50 (SNB-75): > 100 µM (inactive)
- GI50 (SNB-78): > 100 µM (inactive)
- GI50 (SR): > 100 µM (inactive)
- GI50 (SW-620): > 100 µM (inactive)
- GI50 (TK-10): > 100 µM (inactive)
- GI50 (U-251): > 100 µM (inactive)
- GI50 (UACC-257): > 100 µM (inactive)
- GI50 (UACC-62): > 100 µM (inactive)
- GI50 (UO-31): > 100 µM (inactive)

Compound: Cc1cccc(C)c1NC(=O)C1C(=O)N(c2c(C)cccc2C)C(=O)/C1=N\N (stereo unspecified)
- GI50 (786-0): > 100 µM (inactive)
- GI50 (A498): > 100 µM (inactive)
- GI50 (A549): > 100 µM (inactive)
- GI50 (ACHN): > 100 µM (inactive)
- GI50 (CAKI-1): > 100 µM (inactive)
- GI50 (CCRF-CEM): > 100 µM (inactive)
- GI50 (COLO 205): > 100 µM (inactive)
- GI50 (DLD-1): > 100 µM (inactive)
- GI50 (DMS-273): > 100 µM (inactive)
- GI50 (EKVX): > 100 µM (inactive)
- GI50 (HCC 2998): > 100 µM (inactive)
- GI50 (HCT-116): > 100 µM (inactive)
- GI50 (HCT-15): > 100 µM
- GI50 (HL-60): 1.68 µM (inactive)
- GI50 (HOP-18): > 100 µM (inactive)
- GI50 (HOP-62): > 100 µM (inactive)
- GI50 (HOP-92): > 100 µM (inactive)
- GI50 (HT-29): > 100 µM (inactive)
- GI50 (IGROV-1): > 100 µM (inactive)
- GI50 (K562): > 100 µM (inactive)
- GI50 (KM-20L2): > 100 µM (inactive)
- GI50 (LOX IMVI): > 100 µM (inactive)
- GI50 (LXFL 529): > 100 µM (inactive)
- GI50 (M14): > 100 µM (inactive)
- GI50 (M19-MEL): > 100 µM (inactive)
- GI50 (MOLT-4): > 100 µM (inactive)
- GI50 (Malme-3M): > 100 µM (inactive)
- GI50 (NCI-H226): > 100 µM (inactive)
- GI50 (NCI-H23): > 100 µM (inactive)
- GI50 (NCI-H522): > 100 µM (inactive)
- GI50 (OVCAR-3): > 100 µM (inactive)
- GI50 (OVCAR-4): > 100 µM (inactive)
- GI50 (OVCAR-5): > 100 µM (inactive)
- GI50 (OVCAR-8): > 100 µM (inactive)
- GI50 (RPMI-8226): > 100 µM (inactive)
- GI50 (RXF 393): > 100 µM (inactive)
- GI50 (RXF 631): > 100 µM (inactive)
- GI50 (SF-268): > 100 µM (inactive)
- GI50 (SF-295): > 100 µM (inactive)
- GI50 (SF-539): > 100 µM (inactive)
- GI50 (SK-MEL-28): > 100 µM (inactive)
- GI50 (SK-MEL-2): > 100 µM (inactive)
- GI50 (SK-MEL-5): > 100 µM (inactive)
- GI50 (SK-OV-3): > 100 µM (inactive)
- GI50 (SN12C): > 100 µM (inactive)
- GI50 (SNB-19): > 100 µM (inactive)
- GI50 (SNB-75): > 100 µM (inactive)
- GI50 (SR): > 100 µM (inactive)
- GI50 (SW-620): > 100 µM (inactive)
- GI50 (TK-10): > 100 µM (inactive)
- GI50 (U-251): > 100 µM (inactive)
- GI50 (UACC-257): > 100 µM (inactive)
- GI50 (UACC-62): > 100 µM (inactive)
- GI50 (UO-31): > 100 µM (inactive)
